Measured values published in PubChem BioAssay AID248 (DTP/NCI, 2004).
Where “and” joins values, the source holds several entries; their conditions need not be identical. Identical values can stand only once. Toxic doses and inconclusive results are not listed. Rule as the data show it: active = T/C of 150% or more; inactive = T/C below 125%.

System: L1210 leukemia ip in BDF1 mice, survival T/C
Assay: NCI In Vivo Anticancer Drug Screen. Data for tumor model L1210 Leukemia (intraperitoneal) in B6D2F1 (BDF1) mice
Settings: endpoint: mean survival time, higher = longer survival
In short: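 Ratio derived from survival: compound-dosed mice over vehicle-dosed mice, all bearing a transplantable tumor.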

[1] = dose: 100.0 mg/kg/injection, schedule: Q01DX009 (ip), vehicle: saline
[2] = dose: 100.0 mg/kg/injection, schedule: Q04DX003 (ip), vehicle: saline
[3] = dose: 200.0 mg/kg/injection, schedule: Q01DX009 (ip), vehicle: saline
[4] = dose: 200.0 mg/kg/injection, schedule: Q04DX003 (ip), vehicle: saline
[5] = dose: 400.0 mg/kg/injection, schedule: Q01DX009 (ip), vehicle: saline
[6] = dose: 400.0 mg/kg/injection, schedule: Q04DX003 (ip), vehicle: saline
[7] = dose: 100.0 mg/kg/injection, schedule: Q04DX003 (ip), vehicle: Klucel (hydroxypropylcellulose) (HPC)
[8] = dose: 200.0 mg/kg/injection, schedule: Q04DX003 (ip), vehicle: Klucel (hydroxypropylcellulose) (HPC)
[9] = dose: 100.0 mg/kg/injection, schedule: Q04DX003 (ip), vehicle: saline with Tween-80
[10] = dose: 200.0 mg/kg/injection, schedule: Q04DX003 (ip), vehicle: saline with Tween-80
[11] = dose: 400.0 mg/kg/injection, schedule: Q04DX003 (ip), vehicle: saline with Tween-80
[12] = dose: 100.0 mg/kg/injection, schedule: Q01DX009 (ip), vehicle: saline with Tween-80
[13] = dose: 200.0 mg/kg/injection, schedule: Q01DX009 (ip), vehicle: saline with Tween-80
[14] = dose: 400.0 mg/kg/injection, schedule: Q01DX009 (ip), vehicle: saline with Tween-80
[15] = dose: 100.0 mg/kg/injection, schedule: Q01DX001 (ip), vehicle: carboxymethylcellulose (CMC)
[16] = dose: 400.0 mg/kg/injection, schedule: Q01DX001 (ip), vehicle: carboxymethylcellulose (CMC)
[17] = dose: 100.0 mg/kg/injection, schedule: Q04DX002 (ip), vehicle: saline with Tween-80
[18] = dose: 200.0 mg/kg/injection, schedule: Q01DX001 (ip), vehicle: carboxymethylcellulose (CMC)
[19] = dose: 100.0 mg/kg/injection, schedule: Q01DX001 (ip), vehicle: saline
[20] = dose: 200.0 mg/kg/injection, schedule: Q01DX001 (ip), vehicle: saline
[21] = dose: 400.0 mg/kg/injection, schedule: Q01DX001 (ip), vehicle: saline

Measured: T/C

O=S1(=O)c2ccccc2-c2ncccc21
inactive: dose: 25.0 mg/kg/injection, schedule: Q01DX001 (ip), vehicle: saline with Tween-80 105 % of control | dose: 50.0 mg/kg/injection, schedule: Q01DX001 (ip), vehicle: saline with Tween-80 109 % of control | dose: 100.0 mg/kg/injection, schedule: Q01DX001 (ip), vehicle: saline with Tween-80 109 % of control

CCOC(=O)CP(=O)(OCC)OCC
inactive: [1] 103 % of control | [2] 109 % of control | [3] 106 % of control | [4] 102 % of control | [5] 99 % of control | [6] 113 % of control

Cc1ccnc2ccc3ccccc3c12
inactive: dose: 100.0 mg/kg/injection, schedule: Q01DX001 (ip), vehicle: other 101 % of control | dose: 200.0 mg/kg/injection, schedule: Q01DX001 (ip), vehicle: other 107 % of control | dose: 400.0 mg/kg/injection, schedule: Q01DX001 (ip), vehicle: other 113 % of control

CC(C)CCNc1ncnc2c1cnn2C
inactive: dose: 25.0 mg/kg/injection, schedule: Q04DX003 (ip), vehicle: saline 97 % of control | dose: 50.0 mg/kg/injection, schedule: Q04DX003 (ip), vehicle: saline 97 % of control | [2] 102 % of control

NS(=O)(=O)c1ccc(NC(=O)Nc2cc([N+](=O)[O-])ccc2F)cc1
inactive: [7] 98 % of control | [8] 95 % of control | dose: 400.0 mg/kg/injection, schedule: Q04DX003 (ip), vehicle: Klucel (hydroxypropylcellulose) (HPC) 87 % of control

COP(=O)(C(OC(=O)C(C)(C)C)=C(C)C)N(C)C (configuration not stated)
inactive: [9] 97 % of control | [10] 96 % of control | [11] 96 % of control

COc1ccc(/C=N/n2c3ccccc3c3ccccc32)cc1OCCCN(C)C
inactive: dose: 3.12 mg/kg/injection, schedule: Q01DX009 (ip), vehicle: saline 98 % of control | dose: 6.25 mg/kg/injection, schedule: Q01DX009 (ip), vehicle: saline 102 % of control | dose: 25.0 mg/kg/injection, schedule: Q04DX003 (ip), vehicle: alcohol 93 % of control | dose: 50.0 mg/kg/injection, schedule: Q04DX003 (ip), vehicle: alcohol 93 % of control

O=C(OCC1OC(OC2(COC(=O)c3ccccc3)OC(COC(=O)c3ccccc3)C(OC(=O)c3ccccc3)C2OC(=O)c2ccccc2)C(OC(=O)c2ccccc2)C(OC(=O)c2ccccc2)C1OC(=O)c1ccccc1)c1ccccc1 (configuration not stated)
inactive: [12] 95 % of control | [13] 92 % of control | [14] 92 % of control

CN1C(=O)CC(/C=C\[N+](=O)[O-])c2ccccc21 (configuration not stated)
inactive: [15] 94 % of control | [16] 104 % of control

CC1(C)CC(C(N)=O)C(=O)O1 (configuration not stated)
inactive: [9] 101 % of control | [10] 103 % of control | [11] 101 % of control

CC(=O)OCC1OC(N2C(=O)/C(=C/c3ccc4ccccc4c3)SC2=S)C(OC(C)=O)C(OC(C)=O)C1OC(C)=O (configuration not stated)
inactive: dose: 25.0 mg/kg/injection, schedule: Q01DX005 (ip), vehicle: other 92 % of control | dose: 50.0 mg/kg/injection, schedule: Q01DX005 (ip), vehicle: other 97 % of control

CC(C)(C)n1cc(C(=O)c2ccccc2)cc1-c1ccccc1
inactive: [12] 91 % of control | [13] 91 % of control | [14] 87 % of control

Clc1ccc(CC[PH+]2CC=CC2)cc1.Clc1ccc(CC[PH+]2CC=CC2)cc1.[Cl][Ni][Cl]
inactive: [17] 107 % of control

CCCCN(CCCl)C1c2ccccc2-c2ccccc21
inactive: dose: 25.0 mg/kg/injection, schedule: Q04DX002 (ip), vehicle: Klucel (hydroxypropylcellulose) (HPC) 106 % of control | dose: 50.0 mg/kg/injection, schedule: Q04DX002 (ip), vehicle: Klucel (hydroxypropylcellulose) (HPC) 95 % of control

[CH3][Sn]([c]1ccccc1)([c]1ccccc1)[c]1ccccc1
inactive: [17] 91 % of control | dose: 200.0 mg/kg/injection, schedule: Q04DX002 (ip), vehicle: saline with Tween-80 95 % of control | dose: 400.0 mg/kg/injection, schedule: Q04DX002 (ip), vehicle: saline with Tween-80 103 % of control

O=CNc1cccc2c1-c1ccccc1C2=O
inactive: [15] 96 % of control | [18] 91 % of control | [16] 99 % of control

CCOC(=O)C1C(O)=C(c2ccccc2)P(=O)(Cc2ccccc2)C1(C)C (configuration not stated)
inactive: [9] 94 % of control | [10] 94 % of control | [11] 91 % of control

COC(=O)N1C2CCC(C2=C(C)C)N1C(=O)OC
inactive: dose: 50.0 mg/kg/injection, schedule: Q04DX003 (ip), vehicle: Klucel (hydroxypropylcellulose) (HPC) 105 % of control | [7] 102 % of control | [8] 94 % of control

O=C1CCCCCCCS(=O)(=O)C1
inactive: dose: 75.0 mg/kg/injection, schedule: Q01DX001 (ip), vehicle: carboxymethylcellulose (CMC) 112 % of control | dose: 150.0 mg/kg/injection, schedule: Q01DX001 (ip), vehicle: carboxymethylcellulose (CMC) 104 % of control

CC(=O)Nc1cccc(OCCOc2ccc([N+](=O)[O-])cc2)c1
inactive: [15] 92 % of control | [18] 92 % of control | [16] 90 % of control

CC(=O)N(C(C)=O)N(C(C)=O)C(=O)c1ccccn1
inactive: dose: 100.0 mg/kg/injection, schedule: Q01DX001 (ip), vehicle: water 106 % of control | dose: 200.0 mg/kg/injection, schedule: Q01DX001 (ip), vehicle: water 101 % of control | dose: 400.0 mg/kg/injection, schedule: Q01DX001 (ip), vehicle: water 106 % of control

COCOc1ccc(-c2ccc(O)cc2)cc1
inactive: [9] 91 % of control | [10] 91 % of control | [11] 94 % of control

CCCCOc1c(OC)cc(OC)cc1C(=O)O
inactive: [15] 102 % of control | [18] 91 % of control | [16] 86 % of control

O=C(O)C1C2CC3OC(=O)C1C3C2 (configuration not stated)
inactive: [19] 93 % of control | [1] 98 % of control | [9] 91 % of control | [2] 97 % of control and 98 % of control | [20] 94 % of control | [3] 87 % of control | [10] 94 % of control | [4] 95 % of control and 100 % of control | [21] 100 % of control | [5] 87 % of control | [11] 104 % of control | [6] 98 % of control and 115 % of control

COc1cc(C(=O)N(C)C2CCCCC2)cc(OC)c1OC
inactive: [9] 98 % of control | [10] 98 % of control | [11] 102 % of control

O=c1c(=NNc2ccccc2)c(=O)c2ccccc12
inactive: dose: 50.0 mg/kg/injection, schedule: Q01DX001 (ip), vehicle: saline 94 % of control | [19] 94 % of control | [20] 88 % of control | [21] 102 % of control

CCCCOC(=O)CCC(C)=O
inactive: [12] 92 % of control | [9] 109 % of control | [13] 100 % of control | [10] 113 % of control | [14] 96 % of control | [11] 112 % of control
